Reference: patent US20100021599A1, “PRESERVATIVE” (LANXESS DEUTSCHLAND GMBH, priority 2006, published 2010)
Where two headings read alike, the source gives them in different places.

Tested on: Paecilomyces variotii
Details: single substance alone, fruit-component drink inoculated with conidia, incubated two weeks at 27° C.
Protocol: A drink which contains fruit components was admixed with various concentrations of citric acid and subsequently inoculated with conidia of the fungus Paecilomyces variotii. Subsequently, the inoculated drinks samples were treated with various DMDC concentrations and incubated for two weeks at 27° C.

Structure (SMILES)	MHC	MHC (listed as citric acid)
O=C(O)CC(O)(CC(=O)O)C(=O)O [Citric acid, citric acid]	>30 000 ppm	> 30 000 ppm
COC(=O)OC(=O)OC [DMDC, dimethyl dicarbonate]	>250 ppm	
